Experimental findings from patent US6017715A (priority 1996, dated 2000) are described below.

This series concerns Ceriodaphnia. Particulars: in vivo; for LC50 value: ceriodaphnia, 48 h.

Each structure is given as a SMILES string. Converted amounts (≈) assume the structure as drawn.

As to `CCOP(=S)(OCC)Oc1nc(Cl)c(Cl)cc1Cl` [Chlorpyrifos, chlorpyrifos], the LC50 value turned out to be 0.08 ng/mL (≈ 0.228 nM), the “Chlorpyrifos TUs” value amounted to 2.2 TUs, the “TUs by ELISA” value was 3.2 TUs and the “actual toxicity due to the chemical (TUs)” value is 0.5 TUs.

For `CCOP(=S)(OCC)Oc1cc(C)nc(C(C)C)n1` [Diazinon, diazinon], the LC50 value was determined as 0.38 ng/mL (≈ 1.25 nM), the “Diazinon TUs” value amounted to 4.5 TUs, the “TUs by ELISA” value is 1.9 TUs and the “actual toxicity due to the chemical (TUs)” value is 0.9 TUs.

As for `CCCCOCCOCCOCc1cc2c(cc1CCC)OCO2` [PB, piperonyl butoxide], the “Actual Sample TUs / Sample TUs after treatment” value was ~ 1.0 TUs and the “Residual TUs (after PB Treatment)” value was found to be 1.0 TUs.
